Measured values from US20060199866A1, “Combination of desoxypeganine and mecamylanine for the treatment of alcohol abuse” (priority 2003, published 2006).

Key:
[1] = cited from earlier work
[2] = test system: extracellular dopamine concentration in the nucleus accumbens; settings: nucleus accumbens of the rat; baseline dopamine release not impaired; cited from earlier work
[3] = test system: healthy probands; settings: administered two hours prior to consumption of alcoholic beverages; cited from earlier work
[4] = test system: female AA rats; experiment: Reduction of alcohol consumption and alcohol preference in alcohol-preferring AA rats (free choice between water and 10% v/v ethanol); assay type: in vivo, rat; settings: for Alcohol solution consumed: 10% aqueous ethanol
Excerpt: The “AA” strain of rats, bred in Finland, has a genetically determined preference for alcohol, which means that even without pre-treatment with alcohol the animals, when given free choice, prefer alcohol-containing liquids, to alcohol-free liquids to satisfy their fluid requirement. This strain has therefore been used in numerous studies on the pharmacology of alcohol and is extremely well characterized.
Female AA rats (tested for alcohol preference and made available by the Public Health Institute in Helsinki) were housed individually and had free access to standard feed (Altromin 1324 granulate), the ambient temperature was 24±1° C. and the light-dark change was 12/12 hours (the dark period lasting from 6 p.m. to 6 a.m. Each cage contained two identical drinking bottles, of which one contained pure water and the other contained aqueous ethanol (10% v/v). During the 12-hour dark period the animals had access to the drinking bottles and during this period had free choice between the two solutions. To prevent the animals from becoming accustomed to a particular position in the cage, the positions of the bottles were changed daily. Prior to start of the tests, the animals were granted an adaptation phase until a largely constant alcohol and water consumption was ensured.
Deoxypeganine hydrochloride (called “DOP” in the following) was obtained from the Institute for the Pharmacology of Plants (Taschkent, Usbekistan) and supplied by the firm of LTS Lohmann Therapie-Systeme (Andemach, Germany) after checking for identity and purity. Mecamylamine was obtained as a commercial preparation from Sigma-Aldrich GmbH (Munich).
Treatment of the test animals always took place immediately prior to the start of the dark period. Mecamylamine was dissolved in 0.9% aqueous saline and a volume of 5 ml/kg body weight was administered by intraperitoneal injection. DOP was applied as an aqueous solution with a volume of 10 ml/kg by a probang.
In the case of combination treatments, this administration took place within a period of less than 10 minutes. Two treatment-free days were always interposed prior to and following the treatment days.
The parameters recorded were consumption of alcohol, consumption of water and consumption of feed (each in grams), as well as alcohol preference, calculated using the formula: [formula]
The target parameters were in each case traced during the 12 hours of the dark period following treatment, intermediate results were recorded after the first 4 hours and final results after 12 hours. Statistical evaluation of the test data was performed using the t-test for dependent values. The results in respect of consumption of alcohol and alcohol preference are summarized in FIGS. 1 and 2 as well as in Tables 1 and 2.

[5] = target: T1, monoamine oxidase A (Homo sapiens, UniProt P21397); settings: cited from earlier work
T1 sequence (P21397 1-527): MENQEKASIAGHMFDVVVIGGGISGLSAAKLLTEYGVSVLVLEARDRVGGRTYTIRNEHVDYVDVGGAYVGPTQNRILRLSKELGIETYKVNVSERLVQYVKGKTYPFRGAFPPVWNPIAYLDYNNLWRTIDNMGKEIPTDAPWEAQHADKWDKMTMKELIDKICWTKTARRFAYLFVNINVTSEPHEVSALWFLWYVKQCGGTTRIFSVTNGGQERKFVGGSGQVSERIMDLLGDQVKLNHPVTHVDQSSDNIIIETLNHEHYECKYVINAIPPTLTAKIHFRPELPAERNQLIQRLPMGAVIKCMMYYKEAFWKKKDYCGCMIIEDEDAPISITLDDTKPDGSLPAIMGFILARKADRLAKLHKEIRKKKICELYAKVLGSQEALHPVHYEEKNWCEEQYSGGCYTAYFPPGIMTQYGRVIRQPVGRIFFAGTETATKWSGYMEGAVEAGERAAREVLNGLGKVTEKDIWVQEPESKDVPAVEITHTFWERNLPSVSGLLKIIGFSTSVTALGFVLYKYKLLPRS

[6] = test system: neuronal nicotinic acetylcholine receptors (NACHRs); settings: in pharmacologically relevant concentrations; cited from earlier work
[7] = Trial 2, Mec 1 mg/kg i.p., After 4 hours
[8] = Trial 2, Mec 1 mg/kg i.p., After 8 hours (subsequent eight hours)
[9] = Trial 2, Mec 1 mg/kg i.p., Total (12 hours)
[10] = Trial 1, DOP 20 mg/kg p.o., After 4 hours
[11] = Trial 1, DOP 20 mg/kg p.o., After 8 hours (subsequent eight hours)
[12] = Trial 1, DOP 20 mg/kg p.o., Total (12 hours)
[13] = Trial 2, DOP 20 mg/kg p.o., After 4 hours
[14] = Trial 2, DOP 20 mg/kg p.o., After 8 hours (subsequent eight hours)
[15] = Trial 2, DOP 20 mg/kg p.o., Total (12 hours)

SMILES: O=C1CC[C@@]2(O)[C@H]3Cc4ccc(O)c5c4[C@@]2(CCN3CC2CC2)[C@H]1O5 [naltrexone]
- Oral bioavailability [1]: approx. 5%

SMILES: CNC1(C)C2CCC(C2)C1(C)C (racemic) [Mec, reference compound]
- Blockade of alcohol-induced increase in extracellular dopamine concentration [2]: completely blocks
- Effect on the centrally stimulating psychotropic effect of alcohol [3]: reduced the centrally stimulating psychotropic effect
- Oral bioavailability [1]: ~100%
- Alcohol solution consumed [4, 7]: 5.4 ± 0.5 gram
- Alcohol solution consumed [4, 8]: 10.1 ± 0.4 gram
- Alcohol solution consumed [4, 9]: 15.5 ± 0.5 gram
- Effect on consumption of alcohol and alcohol preference ([4]; Mecamylamine 1 mg/kg i.p. administered singly): no effect
- Effect on consumption of alcohol and alcohol preference ([4]; Mecamylamine 1 mg/kg i.p. combined with DOP 20 mg/kg p.o.): potentiated the effect of DOP on both parameters
- Alcohol preference [4, 7]: 85.3 ± 4.2%
- Alcohol preference [4, 8]: 87.8 ± 3.1%
- Alcohol preference [4, 9]: 86.3 ± 2.6%
- Effect on consumption of alcohol and alcohol preference ([4]; mecamylamine 0.5 mg/kg i.p. combined with DOP 20 mg/kg p.o.): without effect with regard to alcohol
- Effect on consumption of alcohol and alcohol preference ([4]; mecamylamine 0.75 mg/kg i.p. combined with DOP 20 mg/kg p.o.): without effect with regard to alcohol
- Effect on consumption of alcohol and alcohol preference ([4]; mecamylamine dosage increased to 1.5 mg/kg i.p., combined with DOP 20 mg/kg p.o.): potentiating effect could not be increased further

SMILES: c1ccc2c(c1)CN1CCCC1=N2 [DOP, 1,2,3,9-tetrahydropyrrollo[2,1-b]chinazoline]
- Inhibition of monoamine oxidase A [5]: inhibits monoamine oxidase A
- Binding to NACHRs [6]: does not bind to NACHRs
- Alcohol solution consumed [4, 10]: 5.2 ± 0.6 gram
- Alcohol solution consumed [4, 11]: 10.2 ± 0.6 gram
- Alcohol solution consumed [4, 12]: 15.4 ± 1.1 gram
- Alcohol solution consumed [4, 13]: 5.8 ± 0.6 gram
- Alcohol solution consumed [4, 14]: 10.7 ± 0.5 gram
- Alcohol solution consumed [4, 15]: 16.6 ± 0.6 gram
- Effect on consumption of alcohol and alcohol preference ([4]; DOP 20 mg/kg p.o., preferably within the first 4 hours after administration): lowered the consumption of alcohol and alcohol preference
- Alcohol preference [4, 10]: 57.4 ± 7.1%
- Alcohol preference [4, 11]: 82.0 ± 4.0%
- Alcohol preference [4, 12]: 70.5 ± 4.5%
- Alcohol preference [4, 13]: 55.6 ± 7.6%
- Alcohol preference [4, 14]: 88.0 ± 2.1%
- Alcohol preference [4, 15]: 72.7 ± 4.3%
